Legend:
Format in all cases: cell-based
PfCRT^3D7 = PfCRT^3D7 (Plasmodium falciparum, UniProt Q8IBZ9); test: cell-based; conditions: for PfCRT-mediated [3H]CQ transport, trans-stimulation (% PfCRT3D7 control): PfCRT3D7 oocytes, normalised to oocyte type control
Procedure: (§1) Unless specified otherwise, the transport assays were conducted over 1.5 h at 27.5 °C and the reaction buffer was ND96 (96 mM NaCl, 2 mM KCl, 1 mM MgCl2, 1.8 mM CaCl2, 10 mM MES and 10 mM Tris-base) at pH 5.5.
(§2) The intracellular concentrations were calculated using previous estimates of the volume of stage V–VI oocytes (~400 nL[60]). […] The oocytes were injected with VF-6 suspended in 25 nL ND96 buffer adjusted to pH 5.0, 5.5, 6.0 or 7.0, which corresponded to the injection of 2.5–250 fmol of H^+. The Na^+-dependence of the trans-stimulatory effect of VF-6 was assessed by injecting the oocytes with VF-6 suspended in ND96 buffer (pH 5.5) or a Na^+-free version of this buffer (the Na^+ was replaced with choline).
(§3) At least four independent experiments were performed (on different days and using oocytes from different frogs), and within each experiment measurements were made from ten oocytes per treatment.

PfCRT^Ecu1110 [1] = biological target: T1, PfCRT^Ecu1110 (Plasmodium falciparum, UniProt Q9N623, A220S/I356L/K76T/N326D); test: cell-based; conditions: for PfCRT-mediated [3H]CQ transport, trans-stimulation (% PfCRTEcu1110 control): PfCRTEcu1110 oocytes, normalised to oocyte type control; for [3H]CQ transport (% PfCRTDd2 control), trans-stimulation, PfCRTEcu1110: PfCRT-mediated component (background subtracted), sheet title says normalised to PfCRTDd2 control, mean ± SEM, SEM
T1 sequence (Q9N623 whole entry A220S/I356L/K76T/N326D): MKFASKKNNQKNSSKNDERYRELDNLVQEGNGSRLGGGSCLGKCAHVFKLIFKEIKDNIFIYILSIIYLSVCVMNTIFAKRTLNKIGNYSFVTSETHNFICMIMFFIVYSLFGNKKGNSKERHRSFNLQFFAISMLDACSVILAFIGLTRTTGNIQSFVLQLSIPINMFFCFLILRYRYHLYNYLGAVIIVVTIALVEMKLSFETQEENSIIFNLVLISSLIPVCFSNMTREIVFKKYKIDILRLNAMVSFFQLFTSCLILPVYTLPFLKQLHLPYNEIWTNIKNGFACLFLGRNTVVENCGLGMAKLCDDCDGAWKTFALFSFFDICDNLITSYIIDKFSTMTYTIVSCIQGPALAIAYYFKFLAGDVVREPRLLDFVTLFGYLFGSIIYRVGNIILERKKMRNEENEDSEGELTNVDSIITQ
Procedure: as §1, §2, §3

PfCRT^Dd2 [2] = biological target: T2, PfCRT^Dd2 (Plasmodium falciparum, UniProt Q9N623, A220S/I356T/K76T/M74I/N326S/N75E/Q271E/R371I); test: cell-based; conditions: for PfCRT-mediated [3H]CQ transport, trans-stimulation (% PfCRTDd2 control): PfCRTDd2 oocytes, normalised to oocyte type control; for [3H]CQ transport (% PfCRTDd2 control), trans-stimulation, PfCRTDd2: PfCRT-mediated component (background subtracted), mean ± SEM, SEM
T2 sequence (Q9N623 whole entry A220S/I356T/K76T/M74I/N326S/N75E/Q271E/R371I): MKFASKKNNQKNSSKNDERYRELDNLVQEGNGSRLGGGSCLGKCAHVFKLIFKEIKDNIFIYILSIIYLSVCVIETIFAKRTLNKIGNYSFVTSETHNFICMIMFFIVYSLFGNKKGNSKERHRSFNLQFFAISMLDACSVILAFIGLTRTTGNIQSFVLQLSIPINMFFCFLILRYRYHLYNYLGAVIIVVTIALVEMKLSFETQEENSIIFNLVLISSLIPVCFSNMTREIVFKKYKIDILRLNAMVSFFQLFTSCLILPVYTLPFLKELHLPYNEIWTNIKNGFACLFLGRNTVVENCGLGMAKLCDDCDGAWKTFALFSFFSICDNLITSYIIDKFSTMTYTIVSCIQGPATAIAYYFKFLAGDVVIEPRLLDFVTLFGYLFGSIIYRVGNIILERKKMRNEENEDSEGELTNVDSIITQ
Procedure: as §1, §2, §3

PfCRT^Ecu1110 [3] = biological target: T1, PfCRT^Ecu1110; test: [3H]CQ uptake into Xenopus oocytes, cis-inhibition by unlabelled solute; conditions: for PfCRT-mediated [3H]CQ transport, cis-inhibition (% PfCRTEcu1110 control): PfCRTEcu1110 oocytes, background [3H]CQ accumulation subtracted, normalised to oocyte type control; for [3H]CQ transport (% PfCRTEcu1110 control), cis-inhibition, PfCRTEcu1110: PfCRT-mediated component (background subtracted), sheet title says normalised to PfCRTDd2 control, mean ± SEM, SEM
Excerpt: (§4) The orientation of PfCRT in the parasite’s DV membrane, and also in the oocyte plasma membrane, is such that its N- and C-termini extend into the cytosol. The oocytes were suspended in a reaction buffer adjusted to pH 5.5 to mimic the pH of the DV lumen[1],[2]. In this scenario, the transport of a substrate via PfCRT from the acidic extracellular solution into the oocyte cytosol[15] is analogous to the parasite’s PfCRT-mediated efflux of a substrate from the acidic DV and into the cytosol. Unless specified otherwise, this is the direction in which substrate transport was measured in the oocyte assays.
as §1
(§5) Ten oocytes were washed twice with the relevant ND96 buffer. […] The assay was terminated by removing the reaction buffer and washing the oocytes with ice-cold ND96 buffer. The oocytes were lysed in 10% (w/v) sodium dodecyl sulfate (SDS) and the radioactivity accumulated within each oocyte was measured with a MicroBeta^2 microplate liquid scintillation analyser (PerkinElmer).
as §3

PfCRT^Dd2 [4] = biological target: T2, PfCRT^Dd2; test: as above; conditions: PfCRTDd2 oocytes, background [3H]CQ accumulation subtracted, normalised to oocyte type control
Excerpt: as §4, §1, §5, §3

[5] = [test solute]i = 5 mM (intracellular)
[6] = [test solute]i = 45 mM (intracellular; 30 mM for some solutes due to solubility)
[7] = [test solute]i = 5 mM (injected)
[8] = [test solute]i = 45 mM (30 mM for some solutes due to solubility)

PfCRT^3D7, sequence (Q8IBZ9 59-398): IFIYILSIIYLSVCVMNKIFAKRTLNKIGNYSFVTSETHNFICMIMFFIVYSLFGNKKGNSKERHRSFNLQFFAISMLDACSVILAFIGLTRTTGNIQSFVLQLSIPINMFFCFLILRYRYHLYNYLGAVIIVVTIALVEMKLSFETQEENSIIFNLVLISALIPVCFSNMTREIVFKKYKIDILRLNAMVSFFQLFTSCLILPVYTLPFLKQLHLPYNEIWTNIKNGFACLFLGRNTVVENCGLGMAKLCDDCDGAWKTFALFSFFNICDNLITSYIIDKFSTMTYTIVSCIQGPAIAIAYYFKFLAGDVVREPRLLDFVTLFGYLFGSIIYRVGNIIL

| Substance | [3H]CQ transport (% PfCRT3D7 control), trans-stimulation, PfCRT3D7 (PfCRT^3D7; SEM) | PfCRT-mediated [3H]CQ transport, trans-stimulation (% PfCRT3D7 control) (PfCRT^3D7; [5]) | PfCRT-mediated [3H]CQ transport, trans-stimulation (% PfCRT3D7 control) (PfCRT^3D7; [6]) | PfCRT-mediated [3H]CQ transport, trans-stimulation (% PfCRTEcu1110 control) (PfCRT^Ecu1110 [1]; [5]) | PfCRT-mediated [3H]CQ transport, trans-stimulation (% PfCRTEcu1110 control) (PfCRT^Ecu1110 [1]; [6]) | [3H]CQ transport (% PfCRTDd2 control), trans-stimulation, PfCRTEcu1110 (PfCRT^Ecu1110 [1]; [7]) | [3H]CQ transport (% PfCRTDd2 control), trans-stimulation, PfCRTEcu1110 (PfCRT^Ecu1110 [1]; [8]) | PfCRT-mediated [3H]CQ transport, trans-stimulation (% PfCRTDd2 control) (PfCRT^Dd2 [2]; [5]) | PfCRT-mediated [3H]CQ transport, trans-stimulation (% PfCRTDd2 control) (PfCRT^Dd2 [2]; [6]) | [3H]CQ transport (% PfCRTDd2 control), trans-stimulation, PfCRTDd2 (PfCRT^Dd2 [2]; [7]) | [3H]CQ transport (% PfCRTDd2 control), trans-stimulation, PfCRTDd2 (PfCRT^Dd2 [2]; [8]) | PfCRT-mediated [3H]CQ transport, cis-inhibition (% PfCRTEcu1110 control) (PfCRT^Ecu1110 [3]; [test solute] = 0.5 mM) | PfCRT-mediated [3H]CQ transport, cis-inhibition (% PfCRTEcu1110 control) (PfCRT^Ecu1110 [3]; [test solute] = 1 mM) | PfCRT-mediated [3H]CQ transport, cis-inhibition (% PfCRTEcu1110 control) (PfCRT^Ecu1110 [3]; [test solute] = 2 mM) | [3H]CQ transport (% PfCRTEcu1110 control), cis-inhibition, PfCRTEcu1110 (PfCRT^Ecu1110 [3]; [test solute] = 2 mM) | PfCRT-mediated [3H]CQ transport, cis-inhibition (% PfCRTDd2 control) (PfCRT^Dd2 [4]; [test solute] = 0.5 mM) | PfCRT-mediated [3H]CQ transport, cis-inhibition (% PfCRTDd2 control) (PfCRT^Dd2 [4]; [test solute] = 1 mM) | PfCRT-mediated [3H]CQ transport, cis-inhibition (% PfCRTDd2 control) (PfCRT^Dd2 [4]; [test solute] = 2 mM) | [3H]CQ transport (% PfCRTEcu1110 control), cis-inhibition, PfCRTEcu1110 (PfCRT^Ecu1110 [3]; [test solute] = 0.5 mM) | [3H]CQ transport (% PfCRTEcu1110 control), cis-inhibition, PfCRTEcu1110 (PfCRT^Ecu1110 [3]; [test solute] = 1 mM) |
| --- | --- | --- | --- | --- | --- | --- | --- | --- | --- | --- | --- | --- | --- | --- | --- | --- | --- | --- | --- | --- |
| AEALERMF [AF-8] | 0.1 ± 0.03 | 97 ± 3.2 % PfCRT3D7 control | 97 ± 3.5 % PfCRT3D7 control | 96 ± 3.1 % PfCRTEcu1110 control | 98 ± 4.1 % PfCRTEcu1110 control | 29 ± 1.0 % PfCRTEcu1110 control | 30 ± 1.9 % PfCRTEcu1110 control | 97 ± 2.8 % PfCRTDd2 control | 96 ± 4.3 % PfCRTDd2 control | 97 ± 2.8 % PfCRTDd2 control | 96 ± 4.3 % PfCRTDd2 control | 52 ± 2.9 % PfCRTEcu1110 control | 41 ± 2.1 % PfCRTEcu1110 control | 32 ± 1.1 % PfCRTEcu1110 control | 10 ± 0.06 % PfCRTEcu1110 control | 61 ± 1.3 % PfCRTDd2 control | 52 ± 2.6 % PfCRTDd2 control | 19 ± 0.1 % PfCRTDd2 control |  |  |
| DLDDALDK [DK-8] |  | 96 ± 3.3 % PfCRT3D7 control | 96 ± 3.4 % PfCRT3D7 control | 95 ± 4.9 % PfCRTEcu1110 control | 97 ± 2.9 % PfCRTEcu1110 control | 29 ± 1.5 % PfCRTEcu1110 control | 29 ± 1.1 % PfCRTEcu1110 control | 98 ± 3.3 % PfCRTDd2 control | 95 ± 4.1 % PfCRTDd2 control | 98 ± 3.3 % PfCRTDd2 control | 95 ± 4.1 % PfCRTDd2 control | 49 ± 1.4 % PfCRTEcu1110 control | 39 ± 2.1 % PfCRTEcu1110 control | 30 ± 0.8 % PfCRTEcu1110 control | 9.0 ± 0.05 % PfCRTEcu1110 control | 44 ± 3.7 % PfCRTDd2 control | 32 ± 1.5 % PfCRTDd2 control | 24 ± 0.8 % PfCRTDd2 control | 15 ± 0.6 % PfCRTEcu1110 control | 13 ± 0.1 % PfCRTEcu1110 control |
| DLPVG [DG-5] |  | 128 ± 2.2 % PfCRT3D7 control | 146 ± 3.2 % PfCRT3D7 control | 115 ± 1.5 % PfCRTEcu1110 control | 118 ± 1.1 % PfCRTEcu1110 control | 35 ± 1.5 % PfCRTEcu1110 control | 36 ± 1.3 % PfCRTEcu1110 control | 98 ± 1.0 % PfCRTDd2 control | 113 ± 1.1 % PfCRTDd2 control | 98 ± 1.0 % PfCRTDd2 control | 113 ± 1.1 % PfCRTDd2 control | 46 ± 1.8 % PfCRTEcu1110 control | 33 ± 2.7 % PfCRTEcu1110 control |  | 5.0 ± 0.05 % PfCRTEcu1110 control | 29 ± 0.6 % PfCRTDd2 control | 22 ± 1.3 % PfCRTDd2 control | 11 ± 0.1 % PfCRTDd2 control | 14 ± 0.5 % PfCRTEcu1110 control | 10 ± 0.6 % PfCRTEcu1110 control |
| DMPNALS [DS-7, host-derived peptide upstream of PL-4] |  | 136 ± 4.1 % PfCRT3D7 control | 188 ± 4.6 % PfCRT3D7 control | 128 ± 3.1 % PfCRTEcu1110 control | 135 ± 4.2 % PfCRTEcu1110 control | 39 ± 1.6 % PfCRTEcu1110 control | 41 ± 1.9 % PfCRTEcu1110 control | 97 ± 3.6 % PfCRTDd2 control | 112 ± 3.5 % PfCRTDd2 control | 97 ± 3.6 % PfCRTDd2 control | 112 ± 3.5 % PfCRTDd2 control | 51 ± 4.1 % PfCRTEcu1110 control | 48 ± 1.4 % PfCRTEcu1110 control | 29 ± 1.5 % PfCRTEcu1110 control | 9.0 ± 0.05 % PfCRTEcu1110 control | 49 ± 1.1 % PfCRTDd2 control | 41 ± 1.0 % PfCRTDd2 control | 27 ± 0.2 % PfCRTDd2 control | 16 ± 0.2 % PfCRTEcu1110 control | 15 ± 0.4 % PfCRTEcu1110 control |

Reference: publication PMC7413254 (Nature Communications, 2020)
